Several values for one entry are separate records, joined by “and”; a condition that tells them apart may be missing. Equal entries are not always repeated.

Holding throughout (type): cell-based, soybean
Data set [1] relates to axillary meristem explants. Nature of the data set: Regeneration capacity of axillary meristem explants on shoot initiation medium with BAP or TDZ. Conditions: three weeks on shoot induction medium. Here is the method:
Cultivar Jack was used in both growing conditions tested. For in vitro donor material, sterile seeds were sown in a Plantcon™ (SIGMA) containing ½ MS salts and 2% sucrose pH 5.7. Seedlings were maintained at 25° C. 16/8 hours (light/dark) photoperiod, at a light intensity between 40 to 70 μM m^−2 s^−1. For greenhouse donor plants, seeds were sown on Metromix™ and grown in the greenhouse at 25° C. and 16 hour photoperiod. Greenhouse tissues were excised from the plant after 3 weeks. For greenhouse materials, the tissues were surface sterilized by immersion on a solution containing 5% Tween 20, followed by immersion in 70% (v/v) ethanol for 2 min then washed for 10 min in 3.5% (v/v) sodium hypochlorite solution and finally rinsed 3 times in sterile water. For in vitro donor material, no further sterilization was needed. Axillary meristem explants were placed basipetal into shoot initiation medium containing full strength MS salts and B5 Gamborg's vitamins amended with either 5 μM BAP or 2 mg/L (9.1 μM) TDZ. […]

Data set [2] relates to leaf explants. Description: Transient GUS expression on leaf explants after co-cultivation on CCM with thiol compounds (Example 8, experiment 2). Conditions: for Entire: explant with GUS (+) foci: entire explant immersed; for Dip: explant with GUS (+) foci: petiole end dipped. Here is the method: In both experiments, soybean cultivar (e.g., Jack) and the Agrobacterium tumefaciens strain AGL1 containing the binary plasmid pBPSEW008 (SEQ ID NO: 1) was used. The binary plasmid contains nosP-bar-nosT and pUBI-gusINT-nosT. The leaf explants and Agrobacterium were prepared as described earlier. The final Agrobacterium OD600 used for all experiments was 0.5. In the first experiment, two repetitions were made for which the following conditions were tested, • (1) addition of one of five thiol combinations added to CCM (no thiols, 100 mg/L L-cysteine (0.825 mM), 400 mg/L L-cysteine (3.3 mM), 1000 mg/L L-cysteine (8.25 mM), or 1 mM sodium thiolsulfate+1 mM DTT+ 1000 mg/L L-cysteine (8.25 mM)), • (2) 3, 4, or 5 day co-cultivation at 25° C., and • (3) incubation in the dark or under 100 μE/m2s cool white light under a 16 light/8 dark light regime. In the second experiment, explants were prepared and subjected to the above treatments except all leaf explants were co-cultivated for 5 days and either the entire ex-plant was immersed into the Agrobacterium/CCM suspension for 10 minutes or the cut petiole end of the explant dipped. Ten explants were entirely immersed per treatment and 4 explants were dipped per treatment. All explants were GUS-stained immediately after co-cultivation.

For data set [3], the system named is leaf explants. Description: Callus/shoot pad regeneration of leaf explants after co-cultivation on CCM with thiol compounds (Example 8, experiment 1). The settings on record: L-cysteine levels over 400 mg/L (3.3 mM) in CCM. Here is the method: In both experiments, soybean cultivar (e.g., Jack) and the Agrobacterium tumefaciens strain AGL1 containing the binary plasmid pBPSEW008 (SEQ ID NO: 1) was used. The binary plasmid contains nosP-bar-nosT and pUBI-gusINT-nosT. The leaf explants and Agrobacterium were prepared as described earlier. The final Agrobacterium OD600 used for all experiments was 0.5. In the first experiment, two repetitions were made for which the following conditions were tested, • (1) addition of one of five thiol combinations added to CCM (no thiols, 100 mg/L L-cysteine (0.825 mM), 400 mg/L L-cysteine (3.3 mM), 1000 mg/L L-cysteine (8.25 mM), or 1 mM sodium thiolsulfate+1 mM DTT+ 1000 mg/L L-cysteine (8.25 mM)), • (2) 3, 4, or 5 day co-cultivation at 25° C., and • (3) incubation in the dark or under 100 μE/m2s cool white light under a 16 light/8 dark light regime. Ten explants were prepared for each treatment. The explants were grown on SIM medium for 2 weeks after which time the percent of explants developing a callus/shoot pad were recorded.

Data set [4] relates to propagated axillary meristems (cultivar Jack). Nature of the data set: GUS expression on propagated axillary meristem explants co-cultivated with L-cysteine. The settings on record: for frequency of propagated axillary meristems showing GUS(+) foci, Day3: AGL1. Here is the method:
Explant preparation: Seeds of variety Jack were surface sterilized by exposure to 70% ethanol for 6 min then immersed in a solution that contained 25% commercial bleach (NaOCl) and 0.1% Tween 20 and stirred at 200 rpm for 20 min. Seeds were rinsed 4 times in sterile water. Germination was carried out for 7 day in the dark at 25° C. The root and half of both cotyledons were removed from the seven-day-old seedlings and imbedded into propagation media on 150×20 mm Petri plates. Plates were sealed with Parafilm™ and placed in a culture room at 25° C. in the light for 2 to 5 weeks.
A. tumefaciens preparation and explant inoculation: A. tumefaciens strain AGL1 carrying the binary vector pBPSMM192b [LB-pSuper-gusINT-NOSt::AtAhast-AtAhas-pAtAhas-RB] (SEQ ID NO: 2) was used. A single colony was used to inoculate 25 to 30 ml LB media containing the appropriate antibiotics. Flasks were shaken on an orbit shaker (220 rpm) at 28° C. for 24 to 36 hours the OD600 reached 0.8 to 1.0. The Agrobacterium was pelleted by centrifugation at 3500 rpm for 8 to 10 min. The bacterial cells were re-suspended in liquid co-cultivation media containing 200 μM acetosyringone. Once cut, the propagated axillary meristem explants were immediately immersed in the A. tumefaciens suspension and remained for 30 minutes. Infected tissues were then transferred either to a vacuum chamber (25-30 mm Hg) for 5 min or placed directly on co-cultivation media. Before transferring onto cultivation medium, explants were blotted dry on sterile filter paper. The treatment tested was the addition of 0, 400, or 800 mg/L L-cysteine into the solid co-cultivation media (0, 3.3, or 6.6 mM, respectively). Co-cultivation was carried out in the dark for 3 days at 25° C. Vacuum infiltration results in an increase of transformation efficiency in protocols which were performed without cysteine-supplementation, but has no significant effect on protocols which were performed with cysteine-supplementation. GUS histochemical assay: Propagated axillary meristem explants infected with A. tumefaciens strain AGL1 were removed from the co-cultivation media after 3 days and stained with Gus overnight at 37° C. Remaining explants were transfer to shoot induction media containing 500 mg/L Timentin™. Gus histochemical assays were also performed at 10 and 45 days after inoculation. Results: After 3 days co-cultivation, the frequency of explants with GUS^+ foci increased from 2.5% to 45 and 63% by the addition of 800 (6.6 mM) or 400 mg/L (3.3 mM) L-cysteine, respectively, into the solid co-cultivation medium. […] The increases in GUS staining were also seen 10 and 45 days after co-cultivation (Table 10).

For data set [5], the system named is explants from the cultivar L00106CN. Nature of the data set: GUS (+) foci on explants infected with AGL1 carrying three binary vectors, with L-cysteine. The settings on record: 400 mg/L (3.3 mM) L-cysteine, AGL1, 10 days post-infection. From the text: Seed germination, propagation, A. tumefaciens and axillary meristem explant preparation, and inoculations were done as previously described. In the first experiment, three A. tumefaciens strains, MP90, LBA4404 and AGL1, containing the binary vector pBPSMM192b (SEQ ID NO: 2) were compared. The infected propagated axillary meristems with the 3 A. tumefaciens strains were removed from the co-cultivation media after 3 days and GUS stained 10 days after inoculation.
In a separate experiment, GUS expression was evaluated on explants from the cultivar L00106CN 10-days after infection with the Agrobacterium strain AGL1 containing the binary vectors pBPSLM003 [LB-OCSt-bar-pMAS::pSuper-gusINT-NOSt-RB] (SEQ ID NO: 3), pBPSMM192a [LB-NOSt-gusINT-pSuper::AtAhast-AtAhas-pAtAhas-RB], or pBPSMM192b [LB-pSuper-gusINT-NOSt::AtAhast-AtAhas-pAtAhas-RB] (SEQ ID NO: 2). The backbone sequence of pBPSLM003 (SEQ ID NO: 3) is different of that in pBPSMM192a and b (SEQ ID NO: 2). The vector pBPSMM192a [LB-NOSt-gusINT-pSuper::AtAhast-AtAhas-pAtAhas-RB is distinguished from the vector pBPSMM192b (SEQ ID NO: 2) by the orientation of the pSuper-gusINT-NOSt expression cassette, which is in reverse orientation.
Explants were also evaluated for GUS expression on explants that had been co-cultivated with or without 400 mg/L (3.3 mM) L-cysteine in the solid co-cultivation medium. Twenty explants of each treatment were prepared for each repetition, a total of 2 repetitions in this experiment. GUS expression was scored 10-days-post initial infection.

Where [6] appears, read: 100 mg/l Cys in CCM, Light, 5 days co-cultivation.

In the case of `c1ccc(CNc2ncnc3nc[nH]c23)cc1` [BAP, 6-benzylaminopurine], the “Mean # of shoots per explant” value is given as 0.20 in data set [1] (Greenhouse plant, BAP 5 uM) and 1.97 in data set [1] (In vitro plant, BAP 5 uM).
In the case of `N[C@@H](CS)C(=O)O` [L-cysteine], the “Entire: explant with GUS (+) foci” value in the data set on leaf explants [2] (setting [6]) is recorded as 6/10; in the data set with leaf explants [2] (100 mg/l Cys, Dark), 7/10; in the data set with leaf explants [2] (400 mg/l Cys, Dark), 9/10; in the data set with leaf explants [2] (400 mg/l Cys, Light) it was 9/10; in the data set with leaf explants [2] (1000 mg/l Cys, Dark), 3/10; in the data set with leaf explants [2] (1000 mg/l Cys, Light) it was 3/10. The “Dip: explant with GUS (+) foci” value is recorded as 0/4 in the data set on leaf explants [2] (setting [6]); 0/4 in the data set on leaf explants [2] (100 mg/l Cys, Dark); 3/4 in the data set with leaf explants [2] (400 mg/l Cys, Dark); 1/4 with leaf explants [2] (400 mg/l Cys, Light); 0/4 in the data set with leaf explants [2] (1000 mg/l Cys, Dark); 1/4 in the data set on leaf explants [2] (1000 mg/l Cys, Light). In addition, the entries for the “effect on explant tissue” value with leaf explants [2] (1000 mg/L L-cysteine in CCM) and in the data set with leaf explants [3] were “significant bleaching” and “tissue death”, respectively. Moreover, the “frequency of propagated axillary meristems showing GUS(+) foci, Day 10” value is listed as 90.0% in data set [4] (400 mg/L L-cysteine) and 72.5% in data set [4] (800 mg/L L-cysteine). Moreover, the “frequency of propagated axillary meristems showing GUS(+) foci, Day 45” value in data set [4] (400 mg/L L-cysteine) was found to be 22.5%; in data set [4] (800 mg/L L-cysteine), 7.5%. The “frequency of propagated axillary meristems showing GUS(+) foci, Day3” value was 63% and 65.0% in data set [4] (400 mg/L L-cysteine in solid co-cultivation medium); 45% and 47.5% in data set [4] (800 mg/L L-cysteine in solid co-cultivation medium). For the same compound, in data set [4] (compared with explants not exposed to L-cysteine), the “browning and tissue necrosis of explants” value is “less browning and tissue necrosis”. Besides, the “frequency of GUS (+) foci on explants, pBPSLM003” value in data set [5] stood at 85%. Also, the “frequency of GUS (+) foci on explants, pBPSMM192a” value in data set [5] was found to be 77%. In data set [5], the “frequency of GUS (+) foci on explants, pBPSMM192b” value came out at 95%.
With `O=C(Nc1ccccc1)Nc1cnns1` [TDZ], the “Mean # of shoots per explant” value in data set [1] (Greenhouse plant, TDZ 9.1 μM) is on record as 0.32; in data set [1] (In vitro plant, TDZ 9.1 μM) it was 0.74.

The values above are taken from US8541653B2, “Transformation of soybean” (BASF Plant Science GmbH, priority 2004, dated 2013).
